From US8609413B2, “Neurons, astrocytes and oligodendrocytes differentiated from a mammalian pluripotent or neural stem cells exposed to a pyridine deriviative” (Research Development Foundation, priority 2007, dated 2013)
“Also recorded” adds a separate entry of the source.

What was measured:
H1 human ES cells = assay: Neuronal differentiation of human ES cells, differentiation protocol 1; format: cell-based; settings: vs DMSO
Procedure: Two different protocols were used to induce neuronal differentiation of human ES cells. In the first protocol, human ES cells were mechanically dissociated into small aggregates and plated on laminin/polyornithine coated six-well plates. Cells were cultured 2 weeks in human SR medium (DMEM F-12 supplemented with 15% knockout serum (Gibco), non-essential amino acids, penicillin and streptomycin), followed by 4 weeks in N2 medium. Compounds were added throughout these first 6 weeks. Subsequently, cells were mechanically dissociated and replated on polyornithine/laminin-coated 6 well plates. Throughout the text, this first differentiation protocol will be referred to as “differentiation protocol 1”. The second differentiation protocol was derived from previously described differentiation conditions (Nat et al., 2007). In the second differentiation protocol, undifferentiated human ES cells were mechanically dissociated into small aggregates and cultured in suspension on low-attachment six-well plates. For the first 4 days, they were cultured in neuronal induction medium (DMEM F-12, N2 supplement, penicillin and streptomycin), which was changed to simple neuronal proliferation medium (DMEM F-12, N2 supplement, 20 ng/ml bFGF, penicillin and streptomycin) for 2 additional days. […]
Immunostaining quantification. Immunostaining and nuclear staining quantifications were performed using the MetaXpress software (Molecular devices). Total neurite outgrowth was quantified using the neurite outgrowth analysis module, and total cell numbers were quantified with the count nuclei analysis module.
Phenazopyridine enhances neuronal differentiation of human ES cells. […] After 8 weeks of differentiation, the DMSO-treated cell population was highly heterogeneous as assessed by immunostaining for β3-tubulin, nestin, vimentin and GFAP. […] To quantify neuronal differentiation, the inventors chose to measure total neurite outgrowth and divided it by total cell number at different time points in three independent experiments (FIG. 7A).

[1] = test system: human ES cell-derived engineered neural tissues (ENTs); assay: Three-dimensional neuronal differentiation / engineered neural tissues (ENTs) from human ES cells; format: cell-based; settings: for number / density of rosettes in ENT: first steps of ENT formation, 1 month old ENTs; for non-neural cells / tissue within ENT (mesenchyma, dark pigmented zones), homogeneity: macroscopic view
Text: ENTs are 3-dimensional pieces of tissues derived from embryonic stem cells (ES) which resemble certain layers of human fetal brain.
For three-dimensional neuronal differentiation, 5-10 spheres were generated as described in differentiation protocol 2 and plated on a pre-cut patch of hydrophilic polytetrafluoroethylene (PTFE) membrane (confetti, 6 mm diameter, 0.4 μm, BioCell-Interface, La Chaux-de-Fonds, Switzerland). Next, the membrane was placed in a Millicell®-CM (0.4 μm) Culture Plate Insert (Millipore) on one ml of N2 medium. The medium was changed every 2-3 days. This method has been described for tissue slices previously (Stoppini et al., 1991) and has been recently adapted to ES cell-derived neural tissue by Preynat-Seauve et al. (attached manuscript).
Next, the activity of phenazopyridine was tested on neuronal differentiation in a three-dimensional culture system.

H1 ES cells = assay: Real Time PCR of neural and non-neural markers during differentiation protocol 2; format: cell-based, human; settings: 3 μM
Procedure: Real Time PCR. Reactions were run on an ABI Prism 7900 HT detection system (Applied Biosystems). ALAS and GusB were used as housekeeping genes. […] Sequences of the primers are shown in supplementary table.
The kinetics of emergence of neural and non-neural markers in DMSO and 3 μM phenazopyridine-treated H1 ES cells were evaluated using real time PCR. […] Expression of non-neural markers was next evaluated. […] The inventors reasoned that the persistence of these markers could be temporary and therefore investigated their expression after four weeks of differentiation.

`Nc1ccc(/N=N/c2ccccc2)c(N)n1` [phenazopyridine] was tested, and the “total neurite outgrowth divided by total cell number (efficiency of differentiation into mature neurons)” value (H1 human ES cells; 3 μM for first 6 weeks, three independent experiments, p=0.045) was “always superior to DMSO-treated cells”, the “homogeneity of cell population by immunostaining (β3-tubulin, nestin, vimentin, GFAP)” value (H1 human ES cells; after 8 weeks of differentiation) was “more homogeneous, most cells being positive for nestin, β3-tubulin, and vimentin, with occasional neuronal networks” and the “formation of neuronal networks” value (H1 human ES cells; after 10 weeks) was “further neuronal networks formed”. The “quality of engineered neural tissues (ENTs)” value ([1]; 3 μM) was “substantially increased the quality”, the “total number of neural tubes per three-dimensional culture” value ([1]; 2 weeks and 4 weeks of differentiation, vs control) was “significant increase” and the “number / density of rosettes in ENT” value [1] was “improved densities of rosettes”. For the same molecule, the “number / density of rosettes in ENT” value ([1]; listed as Phenazopyridine) was “increased the number of rosettes”, the “non-neural cells / tissue within ENT (mesenchyma, dark pigmented zones), homogeneity” value ([1]; with vs without compound) was “decreased the incidence of cells differentiating into non-neuronal cells within ENT” and the “non-neural cells / tissue within ENT (mesenchyma, dark pigmented zones), homogeneity” value ([1]; with vs without compound, listed as phenazopridine) was “displayed less mesenchyma (FIG. 3) and fewer dark pigmented zones; also recorded: more homogenous and appeared to contain a reduced amount of non-neural cells”. The “cartilage by immunofluorescent staining of tenascin C in ENTs” value ([1]; with vs without compound) was “cartilage was not observed”, the “expression of Oct-4 and brachyury” value (H1 ES cells; 2 weeks) was “increased” and the “expression of forebrain (Mash1) and ventral hindbrain (Nkx2.2, HoxB4, Olig2) markers” value (H1 ES cells; 2 weeks) was “also upregulated”. For the same molecule, the “expression of α-fetoprotein (AFP)” value (H1 ES cells; 2 weeks) was “did not vary between both conditions”, the “expression of early (Pax6, nestin), intermediate (β3-tubulin, vimentin) and late (β3-tubulin, Map2) neuronal differentiation markers” value (H1 ES cells; 2 weeks of differentiation, vs control) was “upregulation” and the “expression of the same neural markers at 4 weeks” value (H1 ES cells; 4 weeks of differentiation) was “significant differences in the expression of the same markers at 4 weeks of differentiation were not observed”. For the same molecule, the “downregulation of Oct4” value (H1 ES cells; four weeks of differentiation) was greater than 1000 fold, the downregulation of brachyury (H1 ES cells; four weeks of differentiation) was greater than 10 fold and the “downregulation of α-fetoprotein” value (H1 ES cells; four weeks of differentiation) was greater than 1000 fold.
